From patent publication US20140228349A1, “5,7-SUBSTITUTED-IMIDAZO[1,2-C]PYRIMIDINES” (Array BioPharma Inc., priority 2011, published 2014) come the findings set out here.

Some results are limits rather than exact numbers.

Holding throughout (assay type): biochemical
One test has as its target T1, JAK3 (Homo sapiens, UniProt P52333).
T1 construct: purchased Invitrogen Corporation, Carlsbad, Calif; IVGN PV4080
T1 sequence (P52333 1-1124): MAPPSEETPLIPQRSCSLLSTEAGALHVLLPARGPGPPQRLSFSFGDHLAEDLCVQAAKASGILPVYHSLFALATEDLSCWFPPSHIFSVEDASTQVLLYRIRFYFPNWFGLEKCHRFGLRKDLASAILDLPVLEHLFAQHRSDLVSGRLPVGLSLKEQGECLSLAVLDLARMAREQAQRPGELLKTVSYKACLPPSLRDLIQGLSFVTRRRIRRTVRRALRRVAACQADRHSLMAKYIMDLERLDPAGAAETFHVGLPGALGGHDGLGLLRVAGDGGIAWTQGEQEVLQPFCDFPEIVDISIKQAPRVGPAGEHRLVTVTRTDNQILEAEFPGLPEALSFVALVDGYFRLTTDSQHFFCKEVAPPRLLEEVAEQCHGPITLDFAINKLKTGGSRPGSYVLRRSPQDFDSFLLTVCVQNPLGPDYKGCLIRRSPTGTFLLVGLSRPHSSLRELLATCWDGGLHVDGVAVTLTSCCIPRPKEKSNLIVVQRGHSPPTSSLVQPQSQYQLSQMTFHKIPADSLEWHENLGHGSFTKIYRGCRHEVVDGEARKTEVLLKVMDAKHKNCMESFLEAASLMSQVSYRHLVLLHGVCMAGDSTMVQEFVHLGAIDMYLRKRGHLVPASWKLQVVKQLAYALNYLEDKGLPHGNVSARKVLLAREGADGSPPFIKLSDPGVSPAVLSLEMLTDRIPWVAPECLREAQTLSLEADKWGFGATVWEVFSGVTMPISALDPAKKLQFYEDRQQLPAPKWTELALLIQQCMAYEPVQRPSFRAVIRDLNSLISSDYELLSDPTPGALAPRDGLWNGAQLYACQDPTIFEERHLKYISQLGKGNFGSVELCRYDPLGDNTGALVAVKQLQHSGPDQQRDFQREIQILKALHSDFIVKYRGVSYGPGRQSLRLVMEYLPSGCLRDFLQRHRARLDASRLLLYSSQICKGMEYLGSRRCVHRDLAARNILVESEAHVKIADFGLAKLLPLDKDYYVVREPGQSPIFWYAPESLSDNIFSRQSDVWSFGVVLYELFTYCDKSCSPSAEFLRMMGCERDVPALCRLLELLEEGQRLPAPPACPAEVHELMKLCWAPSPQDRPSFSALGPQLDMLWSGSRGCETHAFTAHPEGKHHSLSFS
In words: JAK3 Inhibition Assay (Omnia kinase fluorescence peptide substrate). The note with it: averaged IC50 ranges; 10 μM (Km app) or 1 mM ATP, 2.5 nM JAK3. The text has this: (§1) The assays described in Examples A, B, C and D for the determination of Tyk2, JAK1, JAK2 and JAK3 kinase activity, respectively, utilized the Omnia® Kinase fluorescence peptide substrate-based technology (Invitrogen). The specific components of the assay mixture are described in Examples A, B, C and D. In these assays, Mg^2+ is chelated upon phosphorylation of the Omnia peptide by the kinase to form a bridge between the chelation-enhanced fluorophore Sox and the phosphate, resulting in an increase in fluorescence emission at 485 nm when excited at […]. The reactions were therefore read at excitation 360 nm and emission was measured at 485 nm every 50 seconds for 45 minutes using a PerkinElmer EnVision Multilabel Plate Reader.
(§2) The final buffer conditions for Tyk2, JAK1, JAK2, and JAK3 assays were as follows: 25 mM HEPES, pH 7.4, 10 mM MgCl2, 0.01% Triton X-100 and 1 mM DTT.
(§3) Compounds were prepared at 50× the final concentration in DMSO by conducting 3-fold serial dilutions from a 500-μM intermediate dilution to give a 10-point dosing curve having a high dose of 10 μM. Two-μL aliquots of these were transferred to a fresh plate for a ten-fold intermediate dilution with assay buffer. Five-μL aliquots of the diluted compounds were then transferred to 20-μL of assay mixtures described in Examples A, B, C and D for a final concentration of DMSO of 2%. A standard or reference compound was typically included on each assay plate to validate that plate. For each plate, percent of control (POC) values were calculated for each well according to the following equation: […]
(§4) IC50's were estimated from the POC's using a standard 4-parameter logistic model:
(§5) The IC50 is defined as the concentration of inhibitor at which the POC equals 50 for the fitted curve.
Compounds of Formula I were screened for their ability to inhibit JAK3 using the general enzyme inhibition assay method, in which the assay mixture contained 10 μM (Km app) or 1 mM ATP, 10 μM Omnia® Y7 peptide (Catalog #IVGN KNZ3071C, Invitrogen Corporation, Carlsbad, Calif.) and 2.5 nM JAK3 in a total volume of 20 μL. JAK3 was purchased from Invitrogen Corporation, Carlsbad, Calif. (catalog #IVGN PV4080).

For a further test, the target named is T2, JAK1 (Homo sapiens, UniProt P23458).
T2 construct: purchased Invitrogen Corporation, Carlsbad, Calif; IVGN PV4775
T2 sequence (P23458 whole entry): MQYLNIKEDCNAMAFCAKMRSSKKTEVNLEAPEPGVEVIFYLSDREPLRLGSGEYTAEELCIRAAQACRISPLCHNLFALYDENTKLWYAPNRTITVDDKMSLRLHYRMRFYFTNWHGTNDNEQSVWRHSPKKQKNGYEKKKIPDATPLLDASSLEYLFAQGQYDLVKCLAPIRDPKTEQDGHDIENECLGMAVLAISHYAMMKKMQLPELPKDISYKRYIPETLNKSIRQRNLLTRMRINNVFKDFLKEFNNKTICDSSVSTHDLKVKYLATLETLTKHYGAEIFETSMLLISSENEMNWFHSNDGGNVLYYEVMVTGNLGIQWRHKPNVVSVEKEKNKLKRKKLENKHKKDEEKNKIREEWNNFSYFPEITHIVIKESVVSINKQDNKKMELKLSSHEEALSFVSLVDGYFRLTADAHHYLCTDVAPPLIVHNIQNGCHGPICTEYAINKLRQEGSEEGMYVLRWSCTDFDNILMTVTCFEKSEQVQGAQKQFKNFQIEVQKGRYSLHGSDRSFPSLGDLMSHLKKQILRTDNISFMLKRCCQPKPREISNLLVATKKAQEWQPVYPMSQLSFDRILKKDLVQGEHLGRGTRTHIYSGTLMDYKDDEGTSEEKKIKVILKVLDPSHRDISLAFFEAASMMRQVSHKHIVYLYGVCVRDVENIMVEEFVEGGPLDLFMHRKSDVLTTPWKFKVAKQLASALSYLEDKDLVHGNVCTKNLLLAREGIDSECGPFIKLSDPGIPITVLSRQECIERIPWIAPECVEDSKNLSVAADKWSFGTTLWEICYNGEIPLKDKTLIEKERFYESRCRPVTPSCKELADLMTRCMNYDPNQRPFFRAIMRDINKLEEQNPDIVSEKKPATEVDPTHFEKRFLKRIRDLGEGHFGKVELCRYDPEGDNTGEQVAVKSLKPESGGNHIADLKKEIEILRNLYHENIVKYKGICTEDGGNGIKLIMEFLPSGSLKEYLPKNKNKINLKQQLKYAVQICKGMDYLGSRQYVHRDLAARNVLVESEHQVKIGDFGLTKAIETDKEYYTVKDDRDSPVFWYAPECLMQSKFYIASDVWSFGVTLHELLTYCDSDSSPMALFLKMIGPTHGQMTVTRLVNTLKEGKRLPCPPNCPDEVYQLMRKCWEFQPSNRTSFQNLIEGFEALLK
In words: JAK1 Inhibition Assay (Omnia kinase fluorescence peptide substrate). The note with it: averaged IC50 ranges; 40 μM (Km app) or 1 mM ATP, 15 nM JAK1.
Source text: as §1, §2, §3, §4, §5
Compounds of Formula I were screened for their ability to inhibit JAK1 using the general enzyme inhibition assay method, in which the assay mixture contained 40 μM (Km app) or 1 mM ATP, 8 μM Omnia® Y12 peptide (Catalog #IVGN KPZ3121C; Invitrogen Corporation, Carlsbad, Calif.) and 15 nM JAK1 in a total volume of 20 μL. JAK1 was purchased from Invitrogen Corporation, Carlsbad, Calif. (catalog #IVGN PV4775).

In the next test the target is T3, Human Tyk2 kinase domain (Homo sapiens, UniProt P29597).
T3 construct: comprising amino acids 886 to 1187; His10 (10 histidine residues) (C, cleaved yes); made in house
T3 sequence (P29597 886-1187): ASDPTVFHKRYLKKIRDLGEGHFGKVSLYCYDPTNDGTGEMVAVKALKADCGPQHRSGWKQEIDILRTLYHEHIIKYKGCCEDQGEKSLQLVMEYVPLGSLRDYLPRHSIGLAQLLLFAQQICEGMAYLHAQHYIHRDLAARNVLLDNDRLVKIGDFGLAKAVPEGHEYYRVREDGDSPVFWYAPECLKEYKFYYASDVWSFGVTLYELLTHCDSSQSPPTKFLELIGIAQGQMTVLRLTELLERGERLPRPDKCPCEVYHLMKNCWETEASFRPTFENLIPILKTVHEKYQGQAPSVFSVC
In words: Tyk2 Inhibition Assay (Omnia kinase fluorescence peptide substrate). The note with it: averaged IC50 ranges; 10 μM (Km app) or 1 mM ATP, 2 nM Tyk2.
Source text: as §1, §2, §3, §4, §5
Compounds of Formula I were screened for their ability to inhibit Tyk2 using the general enzyme inhibition assay method, in which the assay mixture contained 10 μM (Km app) or 1 mM ATP, 8 μM Omnia® Y12 peptide (Catalog #IVGN KPZ3121C; Invitrogen Corporation, Carlsbad, Calif.) and 2 nM Tyk2 in a total volume of 20 μL. Human Tyk2 kinase domain, comprising amino acids 886 to 1187 with 10 additional histidine residues (histidine tag) on the carboxy terminus, was expressed and purified from bacculovirus in-house at Array BioPharma Inc. (Boulder, Colo.). The histidine tag was cleaved after purification using standard conditions.

Another test concerns the target T4, JAK2 (Homo sapiens, UniProt O60674).
T4 construct: purchased Invitrogen Corporation, Carlsbad, Calif; IVGN PV4288
In words: JAK2 Inhibition Assay (Omnia kinase fluorescence peptide substrate). The note with it: averaged IC50 ranges; 25 μM (Km app) or 1 mM ATP, 5 nM JAK2.
Source text: as §1, §2, §3, §4, §5
Compounds of Formula I were screened for their ability to inhibit JAK2 using the general enzyme inhibition assay method, in which the assay mixture contained 25 μM (Km app) or 1 mM ATP, 10 μM Omnia® Y7 peptide (Catalog #IVGN KNZ3071C, Invitrogen Corporation, Carlsbad, Calif.) and 5 nM JAK2 in a total volume of 20 μL. JAK2 was purchased from Invitrogen Corporation, Carlsbad, Calif. (catalog #IVGN PV4288).

T4 sequence (O60674 whole entry): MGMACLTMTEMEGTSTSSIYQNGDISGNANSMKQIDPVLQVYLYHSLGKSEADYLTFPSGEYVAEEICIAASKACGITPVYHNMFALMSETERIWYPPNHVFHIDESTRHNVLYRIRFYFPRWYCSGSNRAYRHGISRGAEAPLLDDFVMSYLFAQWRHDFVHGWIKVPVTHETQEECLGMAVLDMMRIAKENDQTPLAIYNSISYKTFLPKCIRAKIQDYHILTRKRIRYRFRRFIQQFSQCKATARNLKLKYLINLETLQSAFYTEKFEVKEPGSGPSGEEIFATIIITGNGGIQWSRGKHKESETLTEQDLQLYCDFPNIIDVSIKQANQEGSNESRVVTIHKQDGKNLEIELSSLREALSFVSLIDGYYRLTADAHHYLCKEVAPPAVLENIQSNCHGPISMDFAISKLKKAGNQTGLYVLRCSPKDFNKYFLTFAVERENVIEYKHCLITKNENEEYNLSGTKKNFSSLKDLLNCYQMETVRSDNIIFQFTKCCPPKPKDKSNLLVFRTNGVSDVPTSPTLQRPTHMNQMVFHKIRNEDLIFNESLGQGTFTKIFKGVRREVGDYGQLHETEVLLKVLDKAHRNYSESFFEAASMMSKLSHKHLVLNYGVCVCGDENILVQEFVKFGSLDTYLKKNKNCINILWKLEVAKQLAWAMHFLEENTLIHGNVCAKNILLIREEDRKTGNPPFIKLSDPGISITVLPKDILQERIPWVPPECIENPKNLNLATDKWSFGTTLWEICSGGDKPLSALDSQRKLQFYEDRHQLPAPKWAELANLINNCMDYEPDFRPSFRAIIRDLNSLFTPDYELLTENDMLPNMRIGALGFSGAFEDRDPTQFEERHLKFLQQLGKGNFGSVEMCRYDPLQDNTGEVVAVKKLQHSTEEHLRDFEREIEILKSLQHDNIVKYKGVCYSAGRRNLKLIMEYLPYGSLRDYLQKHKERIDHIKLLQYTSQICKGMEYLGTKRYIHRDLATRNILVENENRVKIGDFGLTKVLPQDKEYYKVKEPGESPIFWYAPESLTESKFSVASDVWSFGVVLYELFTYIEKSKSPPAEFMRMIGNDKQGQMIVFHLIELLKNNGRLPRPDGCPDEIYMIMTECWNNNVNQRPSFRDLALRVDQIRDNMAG

As usually defined, the IC50 is the concentration that gives 50% inhibition. Low readings indicate greater potency, high ones weaker potency. `Cn1cc(-c2cc3nccn3c(-c3cnn(C(CC4CC4)CC4CC4)c3)n2)cn1` [Example 11, 5-(1-(1,3-Dicyclopropylpropan-2-yl)-1H-pyrazol-4-yl)-7-(1-methyl-1H-pyrazol-4-yl)imidazo[1,2-c]pyrimidine]: the half-inhibitory concentration (IC50) was in the range of 100 to 1000 nM against JAK3, 100 to 1000 nM against JAK1, 10 to 100 nM on Human Tyk2 kinase domain and 10 to 100 nM on JAK2.

In the case of `CCOC(=O)CC(C1CC1)n1cc(-c2nc(-c3cnn(C)c3)cc3nccn23)cn1` (centres unmarked) [Example 12, Ethyl 3-cyclopropyl-3-(4-(7-(1-methyl-1H-pyrazol-4-yl)imidazo[1,2-c]pyrimidin-5-yl)-1H-pyrazol-1-yl)propanoate], the IC50 at JAK3 was above 1000 nM; at JAK1, above 1000 nM; against Human Tyk2 kinase domain, 100 to 1000 nM; against JAK2, above 1000 nM.

Regarding `Cn1cc(-c2cc3nccn3c(-c3cnn(C(CCO)C4CC4)c3)n2)cn1` (centres unmarked) [Example 13, 3-cyclopropyl-3-(4-(7-(1-methyl-1H-pyrazol-4-yl)imidazo[1,2-c]pyrimidin-5-yl)-1H-pyrazol-1-yl)propan-1-ol], the IC50 against JAK3 was above 1000 nM; against JAK1, above 1000 nM; on Human Tyk2 kinase domain it was 100 to 1000 nM; against JAK2 it was 100 to 1000 nM.

As to `CC(C1CC1)n1cc(-c2nc(-c3cnn(C)c3)cc3nccn23)cn1` (centres unmarked) [Example 14, 5-(1-(1-Cyclopropylethyl)-1H-pyrazol-4-yl)-7-(1-methyl-1H-pyrazol-4-yl)imidazo[1,2-c]pyrimidine], the IC50 was above 1000 nM against JAK3, above 1000 nM against JAK1, 10 to 100 nM against Human Tyk2 kinase domain and 100 to 1000 nM at JAK2.

`CCCC(C1CC1)n1cc(-c2nc(-c3cnn(C)c3)cc3nccn23)cn1` (centres unmarked) [Example 15, 5-(1-(1-Cyclopropylbutyl)-1H-pyrazol-4-yl)-7-(1-methyl-1H-pyrazol-4-yl)imidazo[1,2-c]pyrimidine]: the 50% inhibitory concentration (IC50) is 100 to 1000 nM on JAK3, 100 to 1000 nM against JAK1, 10 to 100 nM on Human Tyk2 kinase domain and 10 to 100 nM against JAK2.

As to `Cn1cc(-c2cc3nccn3c(-c3cnn(C4(C)CN(S(=O)(=O)C(F)(F)F)C4)c3)n2)cn1` [Example 16, 5-(1-(3-Methyl-1-(trifluoromethylsulfonyl)azetidin-3-yl)-1H-pyrazol-4-yl)-7-(1-methyl-1H-pyrazol-4-yl)imidazo[1,2-c]pyrimidine], the IC50 was above 1000 nM at JAK3, 100 to 1000 nM at JAK1, 10 to 100 nM against Human Tyk2 kinase domain and 100 to 1000 nM at JAK2.

`Cn1cc(-c2cc3nccn3c(-c3cnn(C(CCF)C4CC4)c3)n2)cn1` (centres unmarked) [Example 17, 5-(1-(1-Cyclopropyl-3-fluoropropyl)-1H-pyrazol-4-yl)-7-(1-methyl-1H-pyrazol-4-yl)imidazo[1,2-c]pyrimidine]: the concentration for half-maximal inhibition (IC50) on JAK3 is 100 to 1000 nM; against JAK1, 100 to 1000 nM; against Human Tyk2 kinase domain it was below 10 nM; at JAK2, 10 to 100 nM.

Take `Cn1cc(-c2cc3nccn3c(-c3cnn(C4(CCF)CN(S(=O)(=O)C(F)(F)F)C4)c3)n2)cn1` [Example 18, 5-(1-(3-(2-Fluoroethyl)-1-(trifluoromethylsulfonyl)azetidin-3-yl)-1H-pyrazol-4-yl)-7-(1-methyl-1H-pyrazol-4-yl)imidazo[1,2-c]pyrimidine]: the 50% inhibitory concentration (IC50) at JAK3 is 100 to 1000 nM; at JAK1 it was 100 to 1000 nM; on Human Tyk2 kinase domain it was below 10 nM; at JAK2, 10 to 100 nM.

In the case of `Cn1cc(-c2cc3nccn3c(-c3cnn(C4(CCF)CN(CC(F)(F)F)C4)c3)n2)cn1` [Example 19, 5-(1-(3-(2-Fluoroethyl)-1-(2,2,2-trifluoroethyl)azetidin-3-yl)-1H-pyrazol-4-yl)-7-(1-methyl-1H-pyrazol-4-yl)imidazo[1,2-c]pyrimidine], the half-inhibitory concentration (IC50) was above 1000 nM on JAK3, above 1000 nM against JAK1, 10 to 100 nM on Human Tyk2 kinase domain and 100 to 1000 nM on JAK2.

Turning to `CCC1(n2cc(-c3nc(-c4cnn(C)c4)cc4nccn34)cn2)CN(S(=O)(=O)C(F)(F)F)C1` [Example 20, 5-(1-(3-ethyl-1-(trifluoromethylsulfonyl)azetidin-3-yl)-1H-pyrazol-4-yl)-7-(1-methyl-1H-pyrazol-4-yl)imidazo[1,2-c]pyrimidine], the IC50 on JAK3 was 100 to 1000 nM; on JAK1, 100 to 1000 nM; against Human Tyk2 kinase domain it was 10 to 100 nM; against JAK2, 10 to 100 nM.

Turning to `CSCCn1cc(-c2nc(-c3cnn(C)c3)cc3nccn23)cn1` [Example 21, 7-(1-methyl-1H-pyrazol-4-yl)-5-(1-(2-(methylthio)ethyl)-1H-pyrazol-4-yl)imidazo[1,2-c]pyrimidine], the half-inhibitory concentration (IC50) on JAK3 fell in the range of 100 to 1000 nM; against JAK1, 100 to 1000 nM; against Human Tyk2 kinase domain, 10 to 100 nM; against JAK2, 10 to 100 nM.
